Reference: patent US10906899B2, “Bicyclic fused pyrazole derivatives for the treatment of RSV” (GEORGIA STATE UNIVERSITY RESEARCH FOUNDATION, INC., priority 2016, dated 2021)

Test system: RSV
Test: Dose-response counterscreen: luciferase reporter virus infection of BEAS-2B cells (EC50)
Format: cell-based, respiratory syncytial virus (RSV)
Details: human respiratory syncytial virus, B series compounds, read-out: Potency Range (EC50 values)

Compound	EC50 [µM]
Cc1c2c(=O)n(-c3nc4ccc(OC(C)C)cc4s3)n(Cc3ccccc3)c2cc(=O)n1Cc1cccc(Cl)n1 [AVG-256]	0.01 to 0.1
COc1cc(C2CC(=O)Nc3c2c(OS(=O)(=O)C(F)(F)F)nn3-c2nc3ccccc3s2)ccc1OC1CCCC1 (centres unmarked) [AVG-257, 1-(benzo[d]thiazol-2-yl)-4-(4-(cyclopentyloxy)-3-methoxyphenyl)-6-oxo-4,5,6,7-tetrahydro-1H-pyrazolo[3,4-b]pyridin-3-yl trifluoromethanesulfonate]	10 to 20
